Measurements reported in PubChem BioAssay AID330 (DTP/NCI, 2004).
“And” between values parts separate entries of the source, which are not always exact repeats. Identical values can stand only once. Toxic doses and inconclusive results are not listed. How the source made its calls: active means survival T/C of 150% or more; inactive means T/C below 125% in these data.

System: P388 leukemia ip, CD2F1 mice, survival T/C
Experiment: NCI In Vivo Anticancer Drug Screen. Data for tumor model P388 Leukemia (intraperitoneal) in CD2F1 (CDF1) mice
Details: endpoint: median survival time, higher = longer survival
In short: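 Mice carrying the transplanted tumor received test compound or vehicle. Survival was recorded in each group, and the value is the treated-group measurement divided by that of the vehicle-treated control group.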

[1] = dose: 200.0 mg/kg/injection, schedule: Q01DX005 (ip), vehicle: saline with Tween-80
[2] = dose: 100.0 mg/kg/injection, schedule: Q01DX009 (ip), vehicle: saline with Tween-80
[3] = dose: 100.0 mg/kg/injection, schedule: Q04DX003 (ip), vehicle: saline with Tween-80
[4] = dose: 200.0 mg/kg/injection, schedule: Q01DX009 (ip), vehicle: saline with Tween-80
[5] = dose: 200.0 mg/kg/injection, schedule: Q04DX003 (ip), vehicle: saline with Tween-80
[6] = dose: 400.0 mg/kg/injection, schedule: Q01DX009 (ip), vehicle: saline with Tween-80
[7] = dose: 50.0 mg/kg/injection, schedule: Q01DX009 (ip), vehicle: saline
[8] = dose: 100.0 mg/kg/injection, schedule: Q01DX009 (ip), vehicle: saline
[9] = dose: 200.0 mg/kg/injection, schedule: Q01DX009 (ip), vehicle: saline
[10] = dose: 50.0 mg/kg/injection, schedule: Q01DX009 (ip), vehicle: saline with Tween-80
[11] = dose: 50.0 mg/kg/injection, schedule: Q01DX009 (ip), vehicle: Klucel (hydroxypropylcellulose) (HPC)
[12] = dose: 100.0 mg/kg/injection, schedule: Q01DX009 (ip), vehicle: Klucel (hydroxypropylcellulose) (HPC)
[13] = dose: 200.0 mg/kg/injection, schedule: Q01DX009 (ip), vehicle: Klucel (hydroxypropylcellulose) (HPC)

Measured: T/C

CNC(=O)OCc1onc(-c2ccccc2)c1COC(=O)NC
inactive: dose: 12.5 mg/kg/injection, schedule: Q01DX005 (ip), vehicle: distilled water + Tween-80 98 % of control | dose: 25.0 mg/kg/injection, schedule: Q01DX005 (ip), vehicle: distilled water + Tween-80 100 % of control | dose: 50.0 mg/kg/injection, schedule: Q01DX005 (ip), vehicle: distilled water + Tween-80 98 % of control | dose: 100.0 mg/kg/injection, schedule: Q01DX005 (ip), vehicle: distilled water + Tween-80 100 % of control | dose: 200.0 mg/kg/injection, schedule: Q01DX005 (ip), vehicle: distilled water + Tween-80 98 % of control

COc1cc2c(cc1OC)-c1ccccc1COC2=O
inactive: dose: 100.0 mg/kg/injection, schedule: Q04DX002 (ip), vehicle: saline with Tween-80 102 % of control | dose: 200.0 mg/kg/injection, schedule: Q04DX002 (ip), vehicle: saline with Tween-80 93 % of control | dose: 400.0 mg/kg/injection, schedule: Q04DX002 (ip), vehicle: saline with Tween-80 92 % of control

CCOC(=O)C1=C(c2ccco2)NN=C(c2ccccc2)C1
inactive: dose: 50.0 mg/kg/injection, schedule: Q01DX005 (ip), vehicle: saline with Tween-80 101 % of control | dose: 100.0 mg/kg/injection, schedule: Q01DX005 (ip), vehicle: saline with Tween-80 103 % of control | [1] 94 % of control

CCCCCCCCCCCCCCCCCCCCCC(O)(CC)CC
inactive: [2] 100 % of control | [3] 100 % of control | [4] 109 % of control | [5] 100 % of control | [6] 100 % of control | dose: 400.0 mg/kg/injection, schedule: Q04DX003 (ip), vehicle: saline with Tween-80 110 % of control

C=CC(=O)CC1(C(=O)OC)NC(=S)NC(=O)C1C#N (stereo not drawn)
inactive: dose: 60.0 mg/kg/injection, schedule: Q01DX005 (ip), vehicle: Klucel (hydroxypropylcellulose) (HPC) 102 % of control | dose: 120.0 mg/kg/injection, schedule: Q01DX005 (ip), vehicle: Klucel (hydroxypropylcellulose) (HPC) 102 % of control | dose: 240.0 mg/kg/injection, schedule: Q01DX005 (ip), vehicle: Klucel (hydroxypropylcellulose) (HPC) 98 % of control

CNC(=O)OCc1c(COC(=O)NC)c(-c2ccc(Sc3ccccc3)cc2)n(C)c1C
inactive: dose: 200.0 mg/kg/injection, schedule: Q01DX009 (ip), vehicle: distilled water + Tween-80 108 % of control
active: dose: 12.5 mg/kg/injection, schedule: Q01DX009 (ip), vehicle: distilled water + Tween-80 154 % of control | dose: 25.0 mg/kg/injection, schedule: Q01DX009 (ip), vehicle: distilled water + Tween-80 152 % of control | dose: 50.0 mg/kg/injection, schedule: Q01DX009 (ip), vehicle: distilled water + Tween-80 160 % of control and 162 % of control | dose: 100.0 mg/kg/injection, schedule: Q01DX009 (ip), vehicle: distilled water + Tween-80 171 % of control and 184 % of control

N#Cc1cccc(/C=C\C(=O)c2ccccc2)c1
inactive: [7] 88 % of control | [8] 100 % of control | [9] 92 % of control

Cc1cc(O)c(C(c2ccc3c(c2)OCO3)c2c(O)cc(C)[nH]c2=O)c(=O)[nH]1
inactive: [10] 92 % of control | [2] 98 % of control | [4] 95 % of control

O=C(/C=C/C(=O)OCC(Cl)(Cl)Cl)OCC(Cl)(Cl)Cl
inactive: [2] 100 % of control | [4] 114 % of control | [6] 106 % of control

O=C(O)c1c(Cl)n(-c2ccccc2)c2c(C(=O)O)cccc12
inactive: dose: 100.0 mg/kg/injection, schedule: Q01DX001 (ip), vehicle: Klucel (hydroxypropylcellulose) (HPC) 97 % of control | dose: 200.0 mg/kg/injection, schedule: Q01DX001 (ip), vehicle: Klucel (hydroxypropylcellulose) (HPC) 97 % of control | dose: 400.0 mg/kg/injection, schedule: Q01DX001 (ip), vehicle: Klucel (hydroxypropylcellulose) (HPC) 97 % of control

O=C(c1ccccc1)c1ccc2c(c1)-c1ccccc1-2
inactive: [2] 100 % of control | [4] 104 % of control | [6] 95 % of control

Cc1cc(OC(=O)Nc2ccc(C)c([N+](=O)[O-])c2)c(Br)cc1Cl
inactive: dose: 12.5 mg/kg/injection, schedule: Q01DX009 (ip), vehicle: saline 100 % of control | dose: 25.0 mg/kg/injection, schedule: Q01DX009 (ip), vehicle: saline 93 % of control | dose: 50.0 mg/kg/injection, schedule: Q01DX009 (ip), vehicle: saline + alcohol 96 % of control | [7] 100 % of control | dose: 100.0 mg/kg/injection, schedule: Q01DX009 (ip), vehicle: saline + alcohol 99 % of control

O=[N+]([O-])c1ccc2nc(N/N=C/COC/C=N/Nc3nc4ccc([N+](=O)[O-])cc4s3)sc2c1
inactive: dose: 100.0 mg/kg/injection, schedule: Q01DX001 (ip), vehicle: saline 94 % of control | dose: 200.0 mg/kg/injection, schedule: Q01DX001 (ip), vehicle: saline 104 % of control | dose: 400.0 mg/kg/injection, schedule: Q01DX001 (ip), vehicle: saline 96 % of control

C=CCN(CC=C)/N=N/c1nc[nH]c1C(N)=O
inactive: dose: 50.0 mg/kg/injection, schedule: Q01DX001 (ip), vehicle: saline with Tween-80 104 % of control | dose: 100.0 mg/kg/injection, schedule: Q01DX001 (ip), vehicle: saline with Tween-80 90 % of control | dose: 200.0 mg/kg/injection, schedule: Q01DX001 (ip), vehicle: saline with Tween-80 95 % of control

O=[N+]([O-])c1ccc(NC(c2ccccc2)S(=O)(=O)O)cc1 (stereo not drawn)
inactive: [7] 119 % of control | [8] 109 % of control | [9] 123 % of control

O=C1OCc2c1cc1n(c2=O)Cc2cc3ccccc3nc2-1
inactive: dose: 1.0 mg/kg/injection, schedule: Q01DX009 (ip), vehicle: saline with Tween-80 99 % of control and 114 % of control and 115 % of control | dose: 2.0 mg/kg/injection, schedule: Q01DX009 (ip), vehicle: saline with Tween-80 105 % of control

CCC(=O)n1nc(Nc2ccccc2)c(C(=O)OC)c1C
inactive: dose: 6.25 mg/kg/injection, schedule: Q01DX005 (ip), vehicle: saline with Tween-80 99 % of control | dose: 12.5 mg/kg/injection, schedule: Q01DX005 (ip), vehicle: saline with Tween-80 94 % of control | dose: 25.0 mg/kg/injection, schedule: Q01DX005 (ip), vehicle: saline with Tween-80 94 % of control | [1] 86 % of control

C[N+]1(C)CC[N+](C)(C)CC1
inactive: dose: 25.0 mg/kg/injection, schedule: Q01DX009 (ip), vehicle: Klucel (hydroxypropylcellulose) (HPC) 103 % of control | [11] 103 % of control | [12] 100 % of control | [13] 110 % of control

CN(C)/C=C1\CCCCC1=C(C#N)C#N
inactive: dose: 100.0 mg/kg/injection, schedule: Q04DX003 (ip), vehicle: saline 100 % of control | dose: 200.0 mg/kg/injection, schedule: Q04DX003 (ip), vehicle: saline 93 % of control | dose: 400.0 mg/kg/injection, schedule: Q04DX003 (ip), vehicle: saline 95 % of control

COc1ccc(C(=S)SCCCC(=O)O)cc1
inactive: [11] 102 % of control | [12] 98 % of control | [13] 92 % of control

CC1=NCCN=C(C)C1[N+](=O)[O-]
inactive: [7] 91 % of control | [8] 87 % of control

O=[N+]([O-])c1ccc(S(=O)(=O)Nc2c([N+](=O)[O-])cc([N+](=O)[O-])c3ccccc23)cc1
inactive: dose: 50.0 mg/kg/injection, schedule: Q04DX003 (ip), vehicle: saline with Tween-80 92 % of control | [3] 95 % of control | [5] 105 % of control

C1=CC2C(O1)OC2c1ccc2ccccc2c1 (stereo not drawn)
inactive: dose: 7.5 mg/kg/injection, schedule: Q01DX005 (ip), vehicle: Klucel + Tween-80 114 % of control | dose: 15.0 mg/kg/injection, schedule: Q01DX005 (ip), vehicle: Klucel + Tween-80 100 % of control and 97 % of control | dose: 30.0 mg/kg/injection, schedule: Q01DX005 (ip), vehicle: Klucel + Tween-80 89 % of control | dose: 60.0 mg/kg/injection, schedule: Q01DX005 (ip), vehicle: Klucel + Tween-80 89 % of control and 97 % of control

CC(F)C(C)C(N)C(=O)O (stereo not drawn)
inactive: [10] 86 % of control | [2] 91 % of control | [4] 99 % of control

COc1ccc(N2CSC(=S)N(c3ccc(OC)cc3)C2)cc1
inactive: [6] 86 % of control
